Structures can show the parent of a compound that is named as a salt.
Each compound was assayed against Protein Kinase C beta 2 (PKCβII) (Homo sapiens (Human), UniProt P05771) (assay: PKCβII coupled spectrophotometric kinase assay (PK/LDH, NADH absorbance at 340 nm)). Conditions: apparent Ki, ATP competitive inhibition model (Morrison equation); 0.1 mM ATP, 5 nM PKC, 30° C.; read-out: Ki app.
Assay type: biochemical
In short: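 PK/LDH-coupled ADP detection (NADH loss at 340 nm), 20 min at 30° C, pH 7.4; 5 nM PKCβII, 0.15 mM pseudosubstrate peptide, 0.1 mM ATP, with CaCl2, PS and PMA activators, 7.5% DMSO. Apparent Ki from initial velocities fitted to ATP-competitive Morrison model over 10,000–0.169 nM inhibitor.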

Protein Kinase C beta 2 (PKCβII), sequence (P05771 other isoform, or with tags, fused parts or gaps): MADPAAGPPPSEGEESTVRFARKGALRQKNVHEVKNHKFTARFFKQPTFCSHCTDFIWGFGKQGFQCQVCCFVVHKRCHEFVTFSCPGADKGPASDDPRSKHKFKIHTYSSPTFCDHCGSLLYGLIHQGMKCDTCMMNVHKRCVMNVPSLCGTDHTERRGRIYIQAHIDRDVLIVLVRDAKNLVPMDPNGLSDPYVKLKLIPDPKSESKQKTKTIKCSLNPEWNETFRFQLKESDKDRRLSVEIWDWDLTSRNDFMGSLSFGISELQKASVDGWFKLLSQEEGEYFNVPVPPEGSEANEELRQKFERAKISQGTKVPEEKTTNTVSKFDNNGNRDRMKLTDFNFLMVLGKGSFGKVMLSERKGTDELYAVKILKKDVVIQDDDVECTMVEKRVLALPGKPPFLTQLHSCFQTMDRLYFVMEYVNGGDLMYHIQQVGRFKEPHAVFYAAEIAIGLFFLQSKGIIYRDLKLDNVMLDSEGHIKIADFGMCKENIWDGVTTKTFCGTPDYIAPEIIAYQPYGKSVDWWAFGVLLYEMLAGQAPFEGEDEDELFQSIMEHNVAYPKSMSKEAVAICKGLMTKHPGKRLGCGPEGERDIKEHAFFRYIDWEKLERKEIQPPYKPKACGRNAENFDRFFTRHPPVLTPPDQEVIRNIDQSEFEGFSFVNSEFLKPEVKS

Compound	Ki [nM]
CCc1ncc(F)c(Nc2n[nH]c3c2CN(C(=O)N2C[C@@H](C)N(CCC(F)(F)F)C[C@@H]2C)C3(C)C)n1 [Example E4, 5-{[(2S,5R)-2,5-dimethyl-4-(3,3,3-trifluoropropyl)piperazin-1-yl]carbonyl}-N-(2-ethyl-5-fluoropyrimidin-4-yl)-6,6-dimethyl-1,4,5,6-tetrahydropyrrolo[3,4-c]pyrazol-3-amine]	31.5
COCCOc1ncc(F)c(Nc2n[nH]c3c2CN(C(=O)N2C[C@@H](C)N(C)C[C@@H]2C)C3(C)C)n1 [Example K12, N-[5-fluoro-2-(2-methoxyethoxy)pyrimidin-4-yl]-6,6-dimethyl-5-{[(2S,5R)-2,4,5-trimethylpiperazin-1-yl]carbonyl}-1,4,5,6-tetrahydropyrrolo[3,4-c]pyrazol-3-amine]	15.2
C[C@@H]1CN(C(=O)N2Cc3c(Nc4nccc(C(F)(F)F)n4)n[nH]c3C2(C)C)[C@@H](C)CN1C1CCOCC1 [Example J13]	< 10
CCOc1ncc(F)c(Nc2n[nH]c3c2CN(C(=O)N2C[C@@H](C)N(CCC(F)(F)F)C[C@@H]2C)C3(C)C)n1 [Example K18, 5-{[(2S,5R)-2,5-dimethyl-4-(3,3,3-trifluoropropyl)piperazin-1-yl]carbonyl}-N-(2-ethoxy-5-fluoropyrimidin-4-yl)-6,6-dimethyl-1,4,5,6-tetrahydropyrrolo[3,4-c]pyrazol-3-amine]	25.3
CCCc1ncc(F)c(Nc2n[nH]c3c2CN(C(=O)N2CC(C)(C)N(C)C[C@@H]2C)C3(C)C)n1 [Example I1, N-(5-fluoro-2-propylpyrimidin-4-yl)-6,6-dimethyl-5-{[(2S)-2,4,5,5-tetramethylpiperazin-1-yl]carbonyl}-1,4,5,6-tetrahydropyrrolo[3,4-c]pyrazol-3-amine]	1.73
Cc1cccc(Nc2n[nH]c3c2CN(C(=O)N2C[C@@H](C)N(C)C[C@@H]2C)C3(C)C)n1 [Example J8, 6,6-dimethyl-N-(6-methylpyridin-2-yl)-5-{[(2S,5R)-2,4,5-trimethylpiperazin-1-yl]carbonyl}-1,4,5,6-tetrahydropyrrolo[3,4-c]pyrazol-3-amine]	32
CCc1ncc(F)c(Nc2n[nH]c3c2CN(C(=O)N2CC(CCO)N(C)C[C@@H]2C)C3(C)C)n1 (stereo partly drawn) [Example E5, 2-((5S)-4-{[3-[(2-ethyl-5-fluoropyrimidin-4-yl)amino]-6,6-dimethyl-4,6-dihydropyrrolo[3,4-c]pyrazol-5(1H)-yl]carbonyl}-1,5-dimethylpiperazin-2-yl)ethanol]	< 10
CCNc1ncc(F)c(Nc2n[nH]c3c2CN(C(=O)N2C[C@@H](C)N(CCCOC)C[C@@H]2C)C3(C)C)n1 [Example B1, N^2-ethyl-5-fluoro-N^4-(5-{[(2S,5R)-4-(3-methoxypropyl)-2,5-dimethylpiperazin-1-yl]carbonyl}-6,6-dimethyl-1,4,5,6-tetrahydropyrrolo[3,4-c]pyrazol-3-yl)pyrimidine-2,4-diamine acetate salt]	5.09
CCOc1ncc(F)c(Nc2n[nH]c3c2CN(C(=O)C2CCN(CCC(F)(F)F)CC2)C3(C)C)n1 [Example L5, N-(2-ethoxy-5-fluoropyrimidin-4-yl)-6,6-dimethyl-5-{[1-(3,3,3-trifluoropropyl)piperidin-4-yl]carbonyl}-1,4,5,6-tetrahydropyrrolo[3,4-c]pyrazol-3-amine]	129
CCOc1ccnc(Nc2n[nH]c3c2CN(C(=O)N2C[C@@H](C)N(C)C[C@@H]2C)C3(C)C)n1 [Example M1, N-(4-ethoxypyrimidin-2-yl)-6,6-dimethyl-5-{[(2S,5R)-2,4,5-trimethylpiperazin-1-yl]carbonyl}-1,4,5,6-tetrahydropyrrolo[3,4-c]pyrazol-3-amine]	4.24
C[C@H]1CN(C)C(C)(C)CN1C(=O)N1Cc2c(Nc3nc(N(C)C)ncc3F)n[nH]c2C1(C)C [Example A2, N^4-(6,6-dimethyl-5-{[(2S)-2,4,5,5-tetramethylpiperazin-1-yl]carbonyl}-1,4,5,6-tetrahydropyrrolo[3,4-c]pyrazol-3-yl)-5-fluoro-N^2,N^2-dimethylpyrimidine-2,4-diamine]	8.75
CCOc1ncc(F)c(Nc2n[nH]c3c2CN(C(=O)N2C[C@H](C)N(C)C[C@@H]2C)C3(C)C)n1 [Example K13, 2(S),5(S)-{[dimethyl-4-methylpiperazin-1-yl]carbonyl}-N-(5-fluoro-2-ethoxypyrimidin-4-yl)-6,6-dimethyl-1,4,5,6-tetrahydropyrrolo[3,4-c]pyrazol-3-amine]	26.5

— patent US9518060B2, “Substituted pyrrolo[3,4-c]pyrazoles as PKC kinase inhibitors” (PFIZER INC., priority 2007, dated 2016)
